The source made the active and inactive calls. The rule behind the calls is not given here.
What was measured:
PANC-1 [1] = test: Antiproliferative activity against human PANC1 cells incubated for 72 hrs by MTT assay; format: functional, cell-based; details: PANC-1, 72 h
PANC-1 [2] = test: Inhibition of colony formation in human PANC1 cells incubated for 14 days by crystal violet staining based assay; format: functional, cell-based
PANC-1 [3] = test: Induction of apoptosis in human PANC1 cells assessed as increase in cleaved caspase-3 level incubated for 24 hrs by Western blot analysis; format: functional, cell-based
PANC-1 [4] = test: Induction of apoptosis in human PANC1 cells assessed as increase in cleaved PARP level incubated for 24 hrs by Western blot analysis; format: functional, cell-based
[5] = target: T1, Dual specificity mitogen-activated protein kinase kinase; MEK1/2 (Homo sapiens) (UniProt P36507+Q02750); test: Inhibition of MEK1/2 in human PANC1 cells assessed as decrease in phosphorylated levels of MEK at S217/221 at 5 uM incubated for 24 hrs by Western blotting analysis; format: cell-based
[6] = target: T1, Dual specificity mitogen-activated protein kinase kinase; MEK1/2 (Homo sapiens); test: Inhibition of MEK1/2 in human PANC1 cells assessed as decrease in phosphorylated levels of ERK(T202/Y204) at 5 uM incubated for 24 hrs by Western blotting analysis; format: cell-based
[7] = target: T1, Dual specificity mitogen-activated protein kinase kinase; MEK1/2 (Homo sapiens); test: Inhibition of MEK1/2 in human PANC1 cells assessed as decrease in phosphorylated levels of ERK(T202/Y204) in nuclear fraction at 5 uM incubated for 24 hrs by Western blotting analysis; format: cell-based
A549 = test: Antiproliferative activity against human A549 cells incubated for 72 hrs by MTT assay; format: functional, cell-based; details: A549, 72 h
HCT-116 = test: Antiproliferative activity against human HCT116 cells incubated for 72 hrs by MTT assay; format: functional, cell-based; details: HCT-116, 72 h
[8] = Antiproliferative activity against human MCF cells incubated for 72 hrs by MTT assay; format: functional, cell-based
DU-145 = test: Antiproliferative activity against human DU145 cells incubated for 72 hrs by MTT assay; format: functional, cell-based; details: DU-145, 72 h
HepG2 = test: Antiproliferative activity against human HepG2 cells incubated for 72 hrs by MTT assay; format: functional, cell-based; details: HepG2, 72 h
[9] = target: T1, Dual specificity mitogen-activated protein kinase kinase; MEK1/2 (Homo sapiens); details: 10 uM
Description: Inhibition of MEK1/2 in human PANC1 cells assessed as decrease in phosphorylated levels of MEK at S217/221 at 10 uM incubated for 24 hrs by Western blotting analysis

T1 sequence (P36507 whole entry, looked up): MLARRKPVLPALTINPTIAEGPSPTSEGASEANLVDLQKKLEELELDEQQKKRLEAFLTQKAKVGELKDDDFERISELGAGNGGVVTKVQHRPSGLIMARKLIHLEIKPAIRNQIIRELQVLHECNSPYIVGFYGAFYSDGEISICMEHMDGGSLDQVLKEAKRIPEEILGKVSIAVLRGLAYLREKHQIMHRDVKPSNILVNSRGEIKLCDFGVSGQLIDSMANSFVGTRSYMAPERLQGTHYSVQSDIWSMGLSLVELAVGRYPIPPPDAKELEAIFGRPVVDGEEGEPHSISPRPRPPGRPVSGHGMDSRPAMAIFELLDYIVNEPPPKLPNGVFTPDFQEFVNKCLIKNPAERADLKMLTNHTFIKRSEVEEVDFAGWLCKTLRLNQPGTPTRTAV
T1 sequence (Q02750 whole entry, looked up): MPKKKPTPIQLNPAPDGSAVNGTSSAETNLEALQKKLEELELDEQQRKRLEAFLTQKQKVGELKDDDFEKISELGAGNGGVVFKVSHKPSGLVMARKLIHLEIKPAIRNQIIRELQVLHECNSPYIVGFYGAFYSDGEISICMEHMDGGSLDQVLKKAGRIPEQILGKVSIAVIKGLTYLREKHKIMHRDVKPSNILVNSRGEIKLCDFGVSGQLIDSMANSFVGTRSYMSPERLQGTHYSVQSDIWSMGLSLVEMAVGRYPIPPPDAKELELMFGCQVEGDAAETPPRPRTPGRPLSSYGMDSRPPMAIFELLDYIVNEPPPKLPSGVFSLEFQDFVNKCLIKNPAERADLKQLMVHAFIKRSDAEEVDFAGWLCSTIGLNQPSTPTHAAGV

COc1cc(C)c(Br)c(O)c1C(=O)c1c(C=O)c(O)cc(O)c1CC=C(C)C
IC50 (PANC-1 [1]): 26 µM

CC(C)=CCc1c(O)cc(O)c(C=O)c1C(=O)c1c(O)cc(C)c(Cl)c1O
IC50 (PANC-1 [1]): 7.2 µM | inhibition (PANC-1 [2]): Dose-dependent effect | Activity (PANC-1 [3]): Dose-dependent effect | Activity (PANC-1 [4]): Dose-dependent effect | inhibition [5]: Active | inhibition [6]: Active | inhibition [7]: Active | IC50 (A549): 7.8 µM | IC50 (HCT-116): 5.5 µM | IC50 [8]: 7.5 µM | IC50 (DU-145): 14 µM | IC50 (HepG2): 23 µM

COc1c(Cl)c(C)c(Cl)c(O)c1C(=O)c1c(C=O)c(O)cc(O)c1CC=C(C)C [PESTALONE]
IC50 (PANC-1 [1]): 14 µM

CC(C)=CCc1c(O)cc(O)c2c1C(=O)c1c(O)c(Cl)c(C)c(Cl)c1OC2 [PESTALACHLORIDE B]
IC50 (PANC-1 [1]): > 50 µM

CC(C)=CCc1c(O)cc(O)c(C=O)c1C(=O)c1c(O)cc(C)c(Br)c1O
IC50 (PANC-1 [1]): 7.6 µM | inhibition (PANC-1 [2]): Dose-dependent effect | Activity (PANC-1 [3]): Dose-dependent effect | Activity (PANC-1 [4]): Dose-dependent effect | inhibition [5]: Active | inhibition [6]: Active | inhibition [7]: Active

O=c1[nH]cc(F)c(=O)[nH]1 [FLUOROURACIL]
IC50 (PANC-1 [1]): 15 µM | IC50 [8]: 11 µM | IC50 (DU-145): 2.5 µM | IC50 (HepG2): 2.5 µM

COc1cccc(-c2cc(=O)c3ccccc3o2)c1N
inhibition [9]: Active

COc1cc(C)c(Cl)c(O)c1C(=O)c1c(C=O)c(O)cc(O)c1CC=C(C)C
IC50 (PANC-1 [1]): 14 µM | IC50 (A549): 14 µM | IC50 (HCT-116): 10 µM | IC50 [8]: 11 µM | IC50 (DU-145): 21 µM | IC50 (HepG2): 37 µM
